Source: patent US9880171B2, “iASPP phosphorylation and metastatic potential” (LUDWIG INSTITUTE FOR CANCER RESEARCH LTD., priority 2012, dated 2018)

Legend:
Type in all cases: cell-based, human
[1] = tested on: slow-migrating iASPP in H1299 cells; assay: induction of slow-migrating iASPP by chemotherapeutic agents in H1299 cells (WB); conditions: H1299, overnight treatment (oxidative stress inducers 1-3 h; EDTA 4 mM 1 hour), antibody LX49.3
Procedure: FIG. 3. […] H1299 cells were treated overnight with the indicated concentrations of mitosis-arrest drugs nocodazole, colchicine and taxol, DNA damaging drugs, or oxidative stress inducers (1-3 h). Total lysate was prepared in UREA buffer, and iASPP expression patterns were determined using antibody LX49.3. […] Mitotic-arrest drugs were applied to H1299 cells to induce iASPP mobility shift. Floating and adherent cells were collected, and iASPP expression pattern was determined by western blotting (WB). C. […] Left panel, cells in mitosis (floating) and interphase (adherent) were collected by mitotic shake-off, and iASPP expression pattern was determined by WB. Right panel, H1299 cells after Taxol treatment, or mitotic shake-off were immunofluorescence stained using antibody LX49.3. In mitotic shake-off experiment, mitotic shake-off cells were cytospun to slides; the remaining adherent cells after shaking were scraped off and used as interphase control. […] Melanoma cells were treated with nocodazole overnight and iASPP expression patterns from total cell lysate was determined by WB.
FIG. 4. A. Floating and adherent H1299 cells separately collected by mitotic shake-off (FIG. 3C) were stained with propidium iodide (PI), followed by FACS analysis. […] B. H1299 cells were subjected to treatment of 10 μM nocodazole for 24 hours (Nocodazole), on ice for 30 minutes (Cold shock), or 4 mM EDTA for 1 hour (EDTA). Left panel: iASPP expression pattern was analysed by immunoblotting. Right panel: phase contrast images were taken before collection of the cells for WB analysis. Bar=20 μm.
For WB, cells were lysed in buffer containing 8 M urea, 1 M thiourea, 0.5% CHAPS, 50 mM DTT, and 24 mM spermine. A total of 40 μg of protein extract was loaded per lane into SDS-polyacrylamide gels. Gels were transferred onto nitrocellulose membrane (Protran) and the resulting blots incubated first with primary antibody overnight at 4° C. and then with the appropriate secondary horseradish peroxidize-conjugated antibody (Dako). The results were visualized by enhanced chemiluminescent detection (Amersham Biosciences) using X-ray film (Fujifilm). For cell lysate immunoprecipitation, cells were dissolved in NP40 buffer (50 mM Tris-HCl pH 8.0, 150 mM NaCl, 1% NP-40) with protease inhibitor cocktail mix (Roche Diagnostics). Cells were further thoroughly broken by ultrasonication, followed by spinning for 1 hour. Achieved suspension was adjusted to 1-2 mg/ml using NP40 buffer and incubated with 20 μl nickel beads, glutathione beads, or protein A beads (with 2 μg required antibody) for 2 h at room temperature. The beads were washed for four times with NP40 buffer, boiled for 5 min in Laemmli sample buffer, and applied for Western blotting. For pure protein immunoprecipitation, 5-10 μg purified proteins were mixed in NP40 buffer with 1 mg/ml BSA for 2 h at room temperature.
As mitotic cells often detach from the tissue culture dish, floating cells were separated from adherent cells after the treatment of Nocodozole, Taxol and Colchicine.

[2] = tested on: iASPP modification in H1299 cells; assay: nocodazole-induced iASPP modification in H1299 cells, G2/M kinase inhibitor panel (immunoblotting); conditions: 2-10 μM, 10 μM nocodazole overnight
Procedure: FIG. 12. […] FIG. 12A. […] FIG. 12B. […] FIG. 12C.
FIG. 13. FIG. 13A. […] FIG. 13B.
FIG. 20. […] FIG. 20A. […] Bar=20 μm.
For WB, cells were lysed in buffer containing 8 M urea, 1 M thiourea, 0.5% CHAPS, 50 mM DTT, and 24 mM spermine. A total of 40 μg of protein extract was loaded per lane into SDS-polyacrylamide gels. Gels were transferred onto nitrocellulose membrane (Protran) and the resulting blots incubated first with primary antibody overnight at 4° C. and then with the appropriate secondary horseradish peroxidize-conjugated antibody (Dako). The results were visualized by enhanced chemiluminescent detection (Amersham Biosciences) using X-ray film (Fujifilm).

[3] = tested on: nuclear entry of FITC labeled iASPP(625-828); assay: in vitro nuclear import assay in digitonin permeabilized H1299 cells; conditions: for nuclear entry of FITC labeled iASPP(625-828): pre-incubation with 0-1 mg/ml non-labeled protein, 2 hours
Procedure: FIG. 7. S84/S113 phosphorylation of iASPP prevents N- and C-terminal self-interaction and promotes iASPP nuclear localization. A. N- and C-terminal iASPP self-interacts, and iASPP(1-240 of SEQ ID NO: 2)S84D/S113D fails to interact with C-terminal iASPP in vitro. Upper panel: 10 μg/ml purified GST-tagged iASPP (1-240 of SEQ ID NO: 2) or iASPP (249-482 of SEQ ID NO: 2) were incubated with 10 μg/ml purified 6*His-tagged iASPP (625-828 of SEQ ID NO: 2) or ASPP2 (905-1128 of SEQ ID NO: 2) in NP40 buffer for 2 hours. iASPP (1-240 of SEQ ID NO: 2) and iASPP (249-482 of SEQ ID NO: 2) were pulled down by glutathione beads. Bound iASPP (625-828 of SEQ ID NO: 2) and ASPP2 (905-1128 of SEQ ID NO: 2) were determined using anti-His antibodies. Lower panel: 10 μg/ml purified iASPP (1-240 of SEQ ID BO: 2)-GST mutants were incubated with 10 μg/ml mixture of iASPP (625-828 of SEQ ID NO: 2)-His and ASPP2 (905-1128 of SEQ ID NO: 2)-His in NP40 buffer for 2 hours. Interaction was determined as above. […] Cells were suspended in NP40 buffer, and interactions between overexpressed iASPP(1-478 of SEQ ID NO: 2)-V5 and purified iASPP(625-828 of SEQ ID NO: 2)-His were determined by co-immunoprecipitation. […] Cells were suspended in NP40 buffer, and interaction between endogenous iASPP and iASPP (1-240 of SEQ ID NO: 2)-GST was determined by co-immunoprecipitation. […] Upper right panel: H1299 cells were treated with or without nocodazole and iASPP mobility shift were determined in non-denaturing or denaturing WB. […] After 4 washes, the interaction between them was determined by co-immunoprecipitation using anti-GST and anti-V5 antibodies. […] Nuclear iASPP (625-828 of SEQ ID NO: 2)-FITC was determined by direct FITC fluorescence. iASPP(1-240)S84D/S113D and ASPP2(905-1128 of SEQ ID NO: 2) were used as control. […]
Purified proteins were labeled with FITC according to protocol from protein label kit (F-6434, Invitrogen). […] The cellular localization of the substrate was determined by direct fluorescence observation under confocol microscope. […]

N.N.[Cl][Pt][Cl] [Cisplatin]
induction of slow-migrating iASPP isoform [1]: did not result in increased slow-migrating iASPP isoform expression

COc1cc2c(c(OC)c1OC)-c1ccc(OC)c(=O)cc1[C@@H](NC(C)=O)CC2 [Colchicine]
induction of slow-migrating iASPP isoform [1]: induced

OO [hydrogen peroxide]
induction of slow-migrating iASPP isoform [1]: did not result in increased slow-migrating iASPP isoform expression

O=C(O)CN(CCN(CC(=O)O)CC(=O)O)CC(=O)O [EDTA]
induction of slow-migrating iASPP isoform [1]: failed to affect iASPP mobility

CC[C@H](CO)Nc1nc(NCc2ccccc2)c2ncn(C(C)C)c2n1 [roscovitine]
prevention of nocodazole-induced iASPP modification ([2]; panel of 15 G2/M kinase inhibitors): only weakly affected iASPP modification
prevention of nocodazole-induced iASPP modification ([2]; panel of 18 G2/M kinase inhibitors): failed to affect iASPP modification

COc1cccc2c1C(=O)c1c(O)c3c(c(O)c1C2=O)C[C@@](O)(C(=O)CO)C[C@@H]3O[C@H]1C[C@H](N)[C@H](O)[C@H](C)O1 [Doxorubicin]
induction of slow-migrating iASPP isoform [1]: did not result in increased slow-migrating iASPP isoform expression

CN[C@@H]1C[C@H]2O[C@@](C)([C@@H]1OC)n1c3ccccc3c3c4c(c5c6ccccc6n2c5c31)C(=O)NC4 [Staurosporine]
induction of slow-migrating iASPP isoform [1]: did not result in increased slow-migrating iASPP isoform expression

CC(=O)O[C@H]1C(=O)[C@@]2(C)[C@H]([C@H](OC(=O)c3ccccc3)[C@]3(O)C[C@H](OC(=O)[C@H](O)[C@@H](NC(=O)c4ccccc4)c4ccccc4)C(C)=C1C3(C)C)[C@]1(OC(C)=O)CO[C@@H]1C[C@@H]2O [Taxol]
induction of slow-migrating iASPP isoform [1]: induced

B1: iASPP(1-240): purified recombinant N-terminal iASPP fragment, amino acids 1-240 of SEQ ID NO: 2, GST tag (protein, listed as Homo sapiens)
chain: MDSEAFQSARDFLDMNFQSLAMKHMDLKQMELDTAAAKVDELTKQLESLWSDSPAPPGPQAGPPSRPPRYSSSSIPEPFGSRGSPRKAATDGADTPFGRSESAPTLHPYSPLSPKGRPSSPRTPLYLQPDAYGSLDRATSPRPRAFDGAGSSLGRAPSPRPGPGPLRQQGPPTPFDFLGRAGSPRGSPLAEGPQAFFPERGPSPRPPATAYDAPASAFGSSLLGSGGSAFAPPLRAQDDL
modifications: GST tag
nuclear entry of FITC labeled iASPP(625-828) [3]: effectively prevented the nuclear entry
nuclear entry of ASPP2(905-1128) ([3]; pre-incubation with non-labeled protein): no impact on the nuclear entry of ASPP2(905-1128)

B2: iASPP(1-240)S84D/S113D: iASPP phosphor-mimic mutant of the N-terminal fragment 1-240 (protein, listed as Homo sapiens)
chain: MDSEAFQSARDFLDMNFQSLAMKHMDLKQMELDTAAAKVDELTKQLESLWSDSPAPPGPQAGPPSRPPRYSSSSIPEPFGSRGDPRKAATDGADTPFGRSESAPTLHPYSPLDPKGRPSSPRTPLYLQPDAYGSLDRATSPRPRAFDGAGSSLGRAPSPRPGPGPLRQQGPPTPFDFLGRAGSPRGSPLAEGPQAFFPERGPSPRPPATAYDAPASAFGSSLLGSGGSAFAPPLRAQDDL
nuclear entry of FITC labeled iASPP(625-828) [3]: failed to have any impact
